# According to ChEMBL document CHEMBL1133160, “Molecular modeling of the aldose reductase-inhibitor complex based on the X-ray crystal structure and studies with single-site-directed mutants” (J Med Chem, 2000):
# Columns and labels:
# [1] = Inhibitory Activity ratio (IC50 ratio) calculated by Human recombinant aldose reductase wild type against Mutant Aldose reductase (W111A)
# [2] = Inhibitory Activity ratio (IC50 ratio) calculated by Human recombinant aldose reductase wild type against Mutant Aldose reductase (W111Y).
# [3] = target: Aldo-keto reductase family 1 member B1 (Homo sapiens, UniProt P15121); assay: Inhibitory Activity against Human recombinant Aldose Reductase (wild type)
# [4] = Inhibitory Activity ratio (IC50 ratio) calculated by Human recombinant aldose reductase wild type against Mutant Aldose reductase (W20A).
# [5] = Inhibitory Activity ratio (IC50 ratio) calculated by Human recombinant aldose reductase wild type against Mutant Aldose reductase (W20Y)
SMILES,Ratio [1],Ratio [2],IC50 [3],Ratio [4],Ratio [5]
O=C(O)CC1C(=O)N(Cc2ccc(Br)cc2F)C(=O)c2ccc(F)cc21 (stereo not given),120,193,227 nM,311,21
CN1C(=O)c2ccc(Cl)cc2C2(CC(=O)NC2=O)C1=O (stereo not given),> 1280,324,78.2 nM,1070,1.5
O=C1CC2(C(=O)N1)C(=O)N(Cc1nc3cc(C(F)(F)F)ccc3s1)C(=O)c1ccc(F)cc12 (stereo not given),19,2,144 nM,1,0.1

# The next compounds have a lower IC50 [3] than those just listed; values first:
Ratio [1],Ratio [2],IC50 [3],Ratio [4],Ratio [5],SMILES
786,12,42.4 nM,448,2.5,O=C(O)Cn1c(=O)n(Cc2ccc(Br)cc2F)c(=O)c2ccc(Cl)cc21 [ZENARESTAT]
2730,773,73.2 nM,1670,3,CN1C(=O)c2ccc(F)cc2C2(CC(=O)NC2=O)C1=O (stereo not given)
781,1960,54.7 nM,9140,48,O=C1NC(=O)C2(N1)c1cc(F)ccc1-c1ccc(F)cc12
1770,58,66.5 nM,1770,47,O=C(O)Cc1nn(Cc2ccc(Br)cc2F)c(=O)c2ccccc12 [PONALRESTAT]
